In series [1] the test system is SNB19 and UPAB glioma cells. Kind of series: MTT cytotoxicity assay in glioma cell lines. It counts as cell-based. The method, then: Cell lines were kindly provided by Geoffrey Pilkington from the Institute of Biomedical and Biomolecular Sciences at Portsmouth University, UK. The cell lines used in this study were SNB19 (P20-P45) and UPAB (P20-P45).
Briefly, SNB19 and UPAB glioma cells were plated at 1×10^4/well in a 24-well plate. Cells were treated 72 hours later with Carboplatin at the following concentrations: 0.06 mg, 0.12 mg, 0.18 mg, 0.24 mg, 0.3 mg, 0.36 mg, and 0.6 mg (TEVA, UK) for 24, 48, 72, or 96 hours. Each concentration was repeated 4 times. Carboplatin was diluted in phosphate buffered saline (PBS; Sigma Aldrich, UK) and added to 0.5 mL culture media. PBS was used as a negative control and Puromycin dihydrochloride (10 μg/mL; Sigma Aldrich, UK), which inhibits cell growth by preventing protein synthesis, was used as a positive control. Following the incubation period, culture media was changed. Then 50 μL Methylthiazolyl-tetrazolium bromide solution (MTT; Sigma Aldrich, UK; 5 mg/mL) was added to each well and further incubated for 3 hours at 37° C. in a humidified 5% CO2 atmosphere to allow MTT to form formazan crystals in metabolically active cells. Following this, media was removed, and the formazan crystals in each well were solubilized with 190 μL of isopropanol (Fisher Scientific, Loughborough, UK) acidified with hydrochloric acid (VWR, Leicestershire, UK). The cell lysate was transferred to a 96 well plate and the absorbance of each well was measured at 570 nm using a Multiskan Ascent plate reader (Thermo Electron Corporation, UK). Results are expressed as a percentage (%) of treated versus untreated cells.
(In general: Tetrazolium dyes change colour on reduction, which living cells bring about.)

The next series relates to synaptophysin. Kind of series: Synaptophysin ELISA of rat brain homogenates after carboplatin infusion. Type of series: in vivo. To be noted: 72 hours after infusion. The method, then: Brain tissue homogenates were prepared from dissected samples of unfixed frozen hemispheres from rats at 72 hours after infusion of either artificial CSF (control) or carboplatin at concentrations of 0.36 and 0.72 mg/ml. Tissue samples incorporating the overlying cerebral cortex (approximately 200 mg) were dissected and homogenised for 75 s using a Precellys 24 automated tissue homogeniser (Stretton Scientific) with 2.3 mm silica beads (Biospec) in 1% SDS, 10 mM tris base (pH 6.0), 0.1 mM sodium chloride, and the protease inhibitors aprotinin (1 μg/ml; Sigma) and PMSF (10 μM; Sigma). The resultant crude tissue homogenates were centrifuged at 13,000 rpm for 15 min at 4° C., and the supernatants aliquoted and stored at −80° C.
Ninety-six-well plates (Nunc Maxisorp) were coated with primary rabbit anti-synaptophysin polyclonal antibody (Abeam) at a concentration of 1 μg/ml, and incubated overnight at 4° C. After 5 washes with wash buffer, non-specific binding was blocked with the addition of 1% BSA/PBS for 2 hours. After 5 washes with wash buffer, serial dilutions of recombinant synaptophysin or the supernatant of crude homogenates were added to wells in triplicate, and incubated at room temperature for 2 hours. […] Plates were read in a microplate reader at 405 nm (BMG Labtech).
In general terms: ELISA stands for enzyme-linked immunosorbent assay.

For series [2], the system named is diffuse intrinsic pontine glioma. Briefly: CED of carboplatin in a patient with diffuse intrinsic pontine glioma. From the text: MR imaging under general anaesthetic was undertaken to facilitate pre-operative stereotactic planning (field strength 3 T, Philips Achieva TX, Philips Healthcare, The Netherlands) one week prior to surgery. […] A left transfrontal trajectory for catheter implantation was planned (FIGS. 7a-d) facilitating the in-house manufacture of a bespoke catheter with a winged hub (FIG. 8a). The catheter was manufactured from polyether ether ketone (PEEK) with an outer diameter (OD) of 0.6 mm, which was bonded onto a fused silica cannula with a laser-cut tip (OD 0.23 mm). The catheter was designed to be implanted through a 1 mm OD carbothane guide-tube.
On the day of surgery the patient was anaesthetised and placed in a Leksell frame. A pre-operative CT angiogram was performed and co-registered with the post-contrast T1 weighted planning MRI scan to facilitate output of stereotactic co-ordinates to a Neuro|Mate® neurosurgical robot (Renishaw) (FIG. 8b). A 3 cm left frontal curvilinear scalp incision was made and the periosteum retracted. The robot was driven to the entry position on the skull, and using custom-made hand drills, a multi-featured burr hole made into which the guide tube hub would push fit. The dura was pierced and a 1 mm guide rod inserted to a point 24 mm proximal to the target within the tumour. The guide tube was then implanted on a 0.6 mm guide rod to maintain trajectory. The catheter was tunnelled out through a separate stab incision in the scalp and connected to a custom-made in-line gas and bacterial filter. The catheter was attached to an infusion pump (B Braun, Melsungen, Germany) and primed with artificial cerebrospinal fluid (Torbay Pharmaceutical Manufacturing Unit, Torbay, UK). The fused silica catheter was then implanted via the guide-tube with 3 mm of fused silica retained within the guide tube and 24 mm extending beyond the guide-tube tip, thus creating a “recessed-step” within the distal guide-tube (FIG. 8c). The winged hub of the catheter was turned 90° at the skull and secured with 5 mm titanium screws. […] The skin incision was closed in layers and the externalised catheter tubing secured in a loop on the scalp (FIG. 8d).
Whilst under general anaesthesia the child was transferred to the 3 T MRI scanner. The externalised catheter was attached to a 6 m extension line to allow infusions to be performed from a syringe driver (B Braun) outside of the scan room. Infusions of carboplatin diluted in artificial cerebrospinal fluid to a concentration of 0.09 mg/ml were commenced using the following infusion regime:
0.5 μl/min for 10 minutes, 1 μl/min for 5 minutes, 2.5 μl/min for 5 minutes, 5 μl/min for 5 minutes, 7.5 μl/min until completion.
Serial real-time T2-weighted MRI scans were performed in order to allow areas of hyperintense signal change to be used as a proxy measure for drug distribution. […] Once the Vi:Vd ratio was established the child was recovered from anaesthesia and monitored in a high dependency area until completion of the infusion. […] Infusions of carboplatin were performed on 3 consecutive days in order to maintain exposure to the cytotoxic chemotherapy for at least 72 hours.

The conditions of series [3]: cited from earlier work.
Series [4] is described as follows: Glioma tissue concentration after high-dose intravenous delivery (Whittle et al.). It counts as in vivo.
The nature of series [5]: Prolonged intracranial (brainstem) carboplatin infusions in primates (Strege et al.). It counts as in vivo.
Setting [6] is: one month after completion of infusions.

Molecules are shown by their SMILES. Entries after “also recorded” stand apart in the source; their conditions may differ.

For `N.N.O=C([O-])C1(C(=O)[O-])CCC1.[Pt+2]` [carboplatin], the “concentration above which increase in cell kill is negligible” value in series [1] (72 hour exposure) turned out to be 0.24 mg/mL; in series [1] (96 hour exposure), 0.18 mg/mL. The cell kill result in series [1] (96 hour exposure, 0.18 mg/ml) is reported as “greater than 90%”. The figures for the “reduction in synaptophysin (indicative of toxicity)” value with synaptophysin (0.36 mg/ml) and in the series with synaptophysin (0.72 mg/ml) were “not at 0.36 mg/ml” and “observed at 0.72 mg/ml”, respectively. In addition, the “volume of T2 signal change on completion of final infusion” value in series [2] (after 5 infusions, 0.09 and 0.18 mg/ml) was 35.1 mL. Moreover, the “volume of distribution (T2-weighted MRI)” value in series [2] (after infusion of 0.52 ml, 0.09 mg/ml in artificial CSF) turned out to be 2.06 mL. Further, the “follow-up T2-weighted MR imaging” value in series [2] (setting [6]) is “suggestive of the early stages of tumour necrosis”. The “follow-up post-contrast T1-weighted imaging” value in series [2] (setting [6]) was “tumour progression in the inferior and anterior regions of the tumour”. Besides, the tolerability of infusions result in series [2] (patient, 0.09-0.18 mg/ml, up to 10 μl/min) was “well tolerated; also recorded: transient worsening in neurological status”. The serum concentration in series [3] (intracranial infusions of 0.25 mg/kg in primates) was 6 ng/mL. Moreover, in series [3] (one-month long brainstem infusions, 0.075 mg/kg), the clinical toxicity entry is recorded as “minimal clinical evidence of toxicity”. Further, in series [4], the “peak glioma tissue concentration as share of IC50 (meta-analysis of chemosensitivity assays)” value was found to be 40%. For the same molecule, the “lowest concentration likely to lead to significant toxicity” value in series [5] (extrapolated from Strege et al, assuming patient weight of 70 kg) is 0.22 mg/mL. For the same molecule, the “ratio of serum concentration, intravenous in humans vs intracranial in primates” value in series [5] (in vivo, iv) was “more than 5 thousand”.

These data come from patent publication US20160136284A1, “GLIOMA TREATMENT” (priority 2012, published 2016).
